Data on 1 molecule can be found in patent publication US12479823B2, “Compound for use in retinal diseases” (ZHUHAI UNITED LABORATORIES CO., LTD., priority 2018, dated 2025).

Where two headings read alike, the source gives them in different places.

In one data set the target is T1, CYP1A2 (Homo sapiens, UniProt P05177).
T1 construct: fused human liver microsomes were selected as a CYP450 enzyme source; from tissue; host or cells: pooled ("fused") human liver microsomes
T1 sequence (P05177 1-516): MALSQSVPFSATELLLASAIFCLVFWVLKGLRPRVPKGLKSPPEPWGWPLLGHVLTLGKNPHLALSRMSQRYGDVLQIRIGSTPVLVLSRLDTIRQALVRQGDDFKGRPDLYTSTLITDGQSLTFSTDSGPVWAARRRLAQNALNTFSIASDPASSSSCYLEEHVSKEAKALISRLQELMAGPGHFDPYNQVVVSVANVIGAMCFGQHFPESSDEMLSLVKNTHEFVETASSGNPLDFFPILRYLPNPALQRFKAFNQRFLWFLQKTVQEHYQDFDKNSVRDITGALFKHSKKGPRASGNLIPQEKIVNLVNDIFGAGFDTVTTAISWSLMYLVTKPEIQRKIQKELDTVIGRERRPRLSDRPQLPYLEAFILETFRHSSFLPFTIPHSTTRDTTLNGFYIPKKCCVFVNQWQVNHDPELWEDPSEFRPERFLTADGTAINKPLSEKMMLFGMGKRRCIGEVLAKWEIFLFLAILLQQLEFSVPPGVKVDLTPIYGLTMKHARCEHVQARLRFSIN
The experiment in a line: Inhibition of human liver microsomal cytochrome P450 CYP1A2. The format is in vitro ADME. The note with it: human liver microsomes, probe substrate, NADPH. An excerpt:
(§1) Objective: To study the inhibitory effect of compounds on human liver microsomal cytochrome P450. Experimental procedures: In the study on inhibition of the compounds on the human liver microsomal cytochrome P450 (CYP1A2, CYP2C9, CYP2C19, CYP2D6 and CYP3A4), fused human liver microsomes were selected as a CYP450 enzyme source. […]

In the next data set the target is T2, CYP2C9 (Homo sapiens, UniProt P11712).
T2 construct: fused human liver microsomes were selected as a CYP450 enzyme source; from tissue; host or cells: pooled ("fused") human liver microsomes
T2 sequence (P11712 whole entry, the tested form may be a part): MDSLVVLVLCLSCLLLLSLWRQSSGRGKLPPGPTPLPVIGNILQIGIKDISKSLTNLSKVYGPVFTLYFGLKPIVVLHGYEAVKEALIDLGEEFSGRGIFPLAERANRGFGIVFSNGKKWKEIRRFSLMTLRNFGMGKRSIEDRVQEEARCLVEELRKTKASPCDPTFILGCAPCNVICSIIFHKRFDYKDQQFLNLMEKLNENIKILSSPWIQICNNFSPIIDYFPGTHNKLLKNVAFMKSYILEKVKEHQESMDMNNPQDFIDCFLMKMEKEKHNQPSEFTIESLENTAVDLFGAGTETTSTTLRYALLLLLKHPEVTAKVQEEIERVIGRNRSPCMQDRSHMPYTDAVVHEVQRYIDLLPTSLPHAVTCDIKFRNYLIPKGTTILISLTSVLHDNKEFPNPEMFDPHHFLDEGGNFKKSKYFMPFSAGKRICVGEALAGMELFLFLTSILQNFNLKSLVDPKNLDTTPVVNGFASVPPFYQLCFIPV
Briefly: Inhibition of human liver microsomal cytochrome P450 CYP2C9. Type of data set: in vitro ADME. The note with it: human liver microsomes, probe substrate, NADPH.
Source text: as §1

The target of a further data set is T3, CYP2C19 (Homo sapiens, UniProt P33261).
T3 construct: fused human liver microsomes were selected as a CYP450 enzyme source; from tissue; host or cells: pooled ("fused") human liver microsomes
T3 sequence (P33261 whole entry, the tested form may be a part): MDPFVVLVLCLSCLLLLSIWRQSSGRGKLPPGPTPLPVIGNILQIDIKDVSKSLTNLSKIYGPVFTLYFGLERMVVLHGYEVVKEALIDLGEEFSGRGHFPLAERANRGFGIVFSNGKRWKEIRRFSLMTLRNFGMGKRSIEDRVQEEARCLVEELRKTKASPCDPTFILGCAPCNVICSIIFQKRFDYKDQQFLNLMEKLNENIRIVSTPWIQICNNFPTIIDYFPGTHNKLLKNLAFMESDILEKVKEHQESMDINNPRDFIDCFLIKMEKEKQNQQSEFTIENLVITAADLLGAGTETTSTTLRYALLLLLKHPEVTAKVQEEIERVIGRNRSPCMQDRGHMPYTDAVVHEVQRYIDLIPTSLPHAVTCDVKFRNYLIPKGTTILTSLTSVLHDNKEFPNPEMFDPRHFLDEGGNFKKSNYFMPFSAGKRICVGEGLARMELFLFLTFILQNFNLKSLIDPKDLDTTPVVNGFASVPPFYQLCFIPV
Briefly: Inhibition of human liver microsomal cytochrome P450 CYP2C19. Type of data set: in vitro ADME. The conditions noted are these: human liver microsomes, probe substrate, NADPH.
Source text: as §1

Another data set concerns the target T4, CYP2D6 (Homo sapiens, UniProt P10635).
T4 construct: fused human liver microsomes were selected as a CYP450 enzyme source; from tissue; host or cells: pooled ("fused") human liver microsomes
Briefly: Inhibition of human liver microsomal cytochrome P450 CYP2D6. The note with it: human liver microsomes, probe substrate, NADPH. The format is in vitro ADME.
Source text: as §1

A further data set deals with T5, CYP3A4 (Homo sapiens, UniProt P08684).
T5 construct: fused human liver microsomes were selected as a CYP450 enzyme source; from tissue; host or cells: pooled ("fused") human liver microsomes
T5 sequence (P08684 whole entry, the tested form may be a part): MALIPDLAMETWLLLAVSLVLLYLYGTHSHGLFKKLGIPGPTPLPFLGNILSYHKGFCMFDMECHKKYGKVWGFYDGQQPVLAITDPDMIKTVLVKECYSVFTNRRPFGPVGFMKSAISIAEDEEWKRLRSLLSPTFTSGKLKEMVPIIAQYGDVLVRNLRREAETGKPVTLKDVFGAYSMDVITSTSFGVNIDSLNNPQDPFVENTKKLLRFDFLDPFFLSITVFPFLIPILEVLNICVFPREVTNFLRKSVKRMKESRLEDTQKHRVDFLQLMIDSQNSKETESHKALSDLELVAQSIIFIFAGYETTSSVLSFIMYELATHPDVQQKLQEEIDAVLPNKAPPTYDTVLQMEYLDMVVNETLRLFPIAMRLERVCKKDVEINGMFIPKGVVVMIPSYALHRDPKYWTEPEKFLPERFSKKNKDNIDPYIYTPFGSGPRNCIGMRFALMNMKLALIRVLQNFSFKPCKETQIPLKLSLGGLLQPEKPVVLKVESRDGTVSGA
Briefly: Inhibition of human liver microsomal cytochrome P450 CYP3A4. The note with it: human liver microsomes, two probe substrates, NADPH. The format is in vitro ADME.
Source text: as §1

Data set [1] in a line: Pharmacokinetics in SD rats, intravenous injection for 5 consecutive days. The format is in vivo. The conditions noted are these: male, Sprague-Dawley (SD), rat, plasma, 20 mg/kg, 20 mg/kg intravenous daily. The method, then:
Objective: To study 5-day Toxicology of Compounds in SD Rats
Experimental materials: SD rats (male, 200-300 g, 7-9 weeks old, Shanghai Lingchang)
Pharmacokinetic profiles of the compound were tested by intravenous injection in rodents according to the standard protocol. In the study, the candidate compound was prepared as a clear solution, and was administered to SD rats at 20 mg/kg by single intravenous injection for 5 consecutive days. A vehicle for intravenous injection was a 10% hydroxypropyl β-cyclodextrin aqueous solution. Whole blood samples were collected at 0.033, 0.083, 0.25, 0.5, 1, 2, 4, 8, and 24 hours postdose on Day 1 and Day 5 of dosing, centrifuged at 3000 r for 10 min, and separated from supernatant to obtain plasma samples. 15 μL of plasma samples were mixed with 300 μL of acetonitrile precipitated proteins containing an internal standard, and 2 μL of the supernatant was injected by centrifugation. Plasma concentrations were quantified by LC-MS/MS analysis, and pharmacokinetic parameters, such as clearance, half-life, and area under the concentration-time curve, were calculated.

Data set [2] can be described thus: Pharmacokinetics in cynomolgus monkeys, single intravenous injection. The format is in vivo. The note with it: male, cynomolgus monkey, plasma, 1 mg/kg single intravenous injection. The protocol:
Objective: To Study Pharmacokinetics of the Compound in Cynomolgus Monkeys
Experimental material: Cynomolgus Monkeys (male, 2.5-4 kg, greater than or equal to 2 years, Jingang Biotech)
Pharmacokinetic profiles of the compound were tested by intravenous administration in monkeys according to the standard protocol. In the study, the candidate compound was prepared as a clear solution, and was administered to cynomolgus monkeys at 1 mg/kg by single intravenous injection. A vehicle for intravenous injection was a 10% hydroxypropyl ß-cyclodextrin aqueous solution. Whole blood samples were collected at 0.033, 0.083, 0.25, 0.5, 1, 2, 4, 8, 12, and 24 hours, respectively, centrifuged at 3000 r for 10 min, and separated from supernatant to obtain plasma samples. 20 μL of plasma samples were mixed with 400 μL of acetonitrile precipitated proteins containing an internal standard, and 2 μL of the supernatant was injected by centrifugation. Plasma concentrations were quantified by LC-MS/MS analysis, and pharmacokinetic parameters, such as clearance, half-life, and area under the concentration-time curve, etc. were calculated.

The nature of data set [3]: Corneal and plasma drug concentration after eye drops in rats. The format is in vivo. The method, then: Objective: To Study the Ratio of Corneal to Plasma Drug Concentration After Eye Drops in Rats
Experimental Materials: Male SD Rats, 200-300 g, 7-9 weeks old, Shanghai Lingchang
Experimental procedures: The candidate compound was prepared as a clear solution, and administered to SD rats by eye drops. The vehicle for eye drops was 10% hydroxypropyl β-cyclodextrin aqueous solution, and the drug concentration in the eye drops was 5 mg/mL. Corneal and whole blood samples were collected at 1 and 4 hours, respectively. The corneal samples was homogenized in 15 mM phosphate buffer (PBS): MeoH (2:1, v: v) buffer, the whole blood samples were centrifuged at 3000 r for 10 min, and the supernatant plasma samples were separated. 20 μL of the plasma samples and homogenate samples were mixed with 400 μL of acetonitrile precipitated proteins containing an internal standard, respectively, and 2 μL of the supernatant was injected by centrifugation. The plasma concentrations were quantified by LC-MS/MS analysis; the drug concentrations in the cornea and plasma were measured respectively according to different time points, and the ratio of corneal/plasma concentrations was calculated.

T4 sequence (P10635 whole entry, the tested form may be a part): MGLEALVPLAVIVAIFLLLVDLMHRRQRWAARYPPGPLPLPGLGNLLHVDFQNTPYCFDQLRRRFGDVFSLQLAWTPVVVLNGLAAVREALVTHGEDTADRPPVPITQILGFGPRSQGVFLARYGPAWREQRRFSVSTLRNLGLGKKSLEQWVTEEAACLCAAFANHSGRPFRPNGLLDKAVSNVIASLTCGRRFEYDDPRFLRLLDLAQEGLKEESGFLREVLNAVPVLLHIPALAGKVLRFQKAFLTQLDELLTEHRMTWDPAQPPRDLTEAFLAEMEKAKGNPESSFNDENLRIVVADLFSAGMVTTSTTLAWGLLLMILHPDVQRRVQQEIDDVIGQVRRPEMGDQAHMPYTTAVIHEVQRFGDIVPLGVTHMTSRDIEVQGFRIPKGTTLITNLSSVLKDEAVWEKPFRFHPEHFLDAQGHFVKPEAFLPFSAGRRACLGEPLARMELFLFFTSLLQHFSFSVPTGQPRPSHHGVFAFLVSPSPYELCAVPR

As to `CC(C)(O)c1ccc(-c2cnc(C(C)(C)O)c(N)c2)cc1N` [Compound 3], the IC50 against CYP1A2, at CYP2C9, against CYP2C19, against CYP2D6 and against CYP3A4 was over 50 µM each time. Besides, the clearance is 7.11 mL/min/kg in data set [1] (Day 1), 9.04 mL/min/kg in data set [1] (Day 5) and 6.2 mL/min/kg in data set [2]. Further, the AUC stood at 156 µM·h in data set [1] (Day 1, read-out: Area under the concentration-time curve AUC); 123 µM·h in data set [1] (Day 5, read-out: Area under the concentration-time curve AUC); 9.16 µM·h in data set [2] (read-out: Area under the concentration-time curve AUC). The half-life in data set [1] (Day 1, read-out: Half-time T1/2 (converted)) is 2.45 h; in data set [1] (Day 5, read-out: Half-time T1/2 (converted)) it was 2.72 h; in data set [2] (read-out: Half-time T1/2 (converted)) it was 3.81 h. The “entry into the cornea by eye drops” value in data set [3] (SD rats, eye drops, result in words) is listed as “could enter the cornea by eye drops”. The concentration at 1 h is 1800 nM in data set [3] (male, Sprague-Dawley (SD), rat, cornea, topical, eye drops 5 mg/mL, 1 h, read-out: Corneal Concentration) and 162 nM in data set [3] (male, Sprague-Dawley (SD), rat, plasma, topical, eye drops 5 mg/mL, 1 h, read-out: Plasma Concentration). The concentration at 4 h in data set [3] (male, Sprague-Dawley (SD), rat, cornea, topical, eye drops 5 mg/mL, 4 h, read-out: Corneal Concentration) amounted to 581 nM; in data set [3] (male, Sprague-Dawley (SD), rat, plasma, topical, eye drops 5 mg/mL, 4 h, read-out: Plasma Concentration) it was 43.8 nM. For the same molecule, the Kp in data set [3] (male, Sprague-Dawley (SD), rat, cornea/plasma, topical, 5 mg/mL, eye drops, statement in the conclusion, no time point, read-out: ratio of cornea/plasma concentrations) is over 10. The Kp at 1 h in data set [3] (male, Sprague-Dawley (SD), rat, cornea/plasma, topical, eye drops 5 mg/mL, 1 h, read-out: Corneal Concentration/Plasma Concentration C/P ratio) came to 14.3. Also, in data set [3] (male, Sprague-Dawley (SD), rat, cornea/plasma, topical, eye drops 5 mg/mL, 4 h, read-out: Corneal Concentration/Plasma Concentration C/P ratio), the Kp at 4 h came out at 16.6.
